Reference: ChEMBL document CHEMBL1250451, “Mechanistic insights into a Ca2+-dependent family of alpha-mannosidases in a human gut symbiont” (Nat Chem Biol, 2010)
Activity calls are given as the source filed them. No cut-off for these calls is given here.

What was measured:
Assay type in all cases: protein assay
[1] = biological target: T1, Alpha-1,2-mannosidase (BT_3858) (Bacteroides thetaiotaomicron) (UniProt Q8A113); assay: Activity of Bacteroides thetaiotaomicron GH92 alpha-mannosidase GH92 alpha-mannosidase 3858 assessed as mannose release at 1 mM after 16 hrs by HPLC relative to untreated control after 16 hrs by HPLC
T1 sequence (whole entry): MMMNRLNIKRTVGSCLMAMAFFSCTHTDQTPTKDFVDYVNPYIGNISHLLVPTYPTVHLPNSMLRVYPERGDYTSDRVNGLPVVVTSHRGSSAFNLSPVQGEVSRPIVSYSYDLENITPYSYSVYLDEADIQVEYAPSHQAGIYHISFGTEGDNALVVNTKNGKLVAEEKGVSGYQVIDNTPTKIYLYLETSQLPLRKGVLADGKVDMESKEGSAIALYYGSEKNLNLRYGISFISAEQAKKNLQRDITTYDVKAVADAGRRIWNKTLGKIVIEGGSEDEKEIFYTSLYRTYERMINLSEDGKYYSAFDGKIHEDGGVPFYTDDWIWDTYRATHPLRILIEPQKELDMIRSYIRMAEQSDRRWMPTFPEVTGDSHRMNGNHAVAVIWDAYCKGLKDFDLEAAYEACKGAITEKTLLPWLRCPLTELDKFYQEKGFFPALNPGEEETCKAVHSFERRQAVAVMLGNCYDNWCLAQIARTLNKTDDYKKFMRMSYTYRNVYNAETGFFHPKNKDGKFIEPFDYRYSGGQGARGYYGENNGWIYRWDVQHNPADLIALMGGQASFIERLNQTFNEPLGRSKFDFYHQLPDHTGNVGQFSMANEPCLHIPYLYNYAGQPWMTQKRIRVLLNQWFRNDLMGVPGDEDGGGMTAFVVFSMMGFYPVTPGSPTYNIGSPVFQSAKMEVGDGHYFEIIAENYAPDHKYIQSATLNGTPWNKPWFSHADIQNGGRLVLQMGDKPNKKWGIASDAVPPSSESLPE

[2] = biological target: T2, Alpha-1,2-mannosidase, putative (BT_3773) (Bacteroides thetaiotaomicron) (UniProt Q8A193); assay: Activity of Bacteroides thetaiotaomicron GH92 alpha-mannosidase GH92 alpha-mannosidase 3773 assessed as mannose release at 1 mM after 16 hrs by HPLC relative to untreated control after 16 hrs by HPLC
T2 sequence (whole entry): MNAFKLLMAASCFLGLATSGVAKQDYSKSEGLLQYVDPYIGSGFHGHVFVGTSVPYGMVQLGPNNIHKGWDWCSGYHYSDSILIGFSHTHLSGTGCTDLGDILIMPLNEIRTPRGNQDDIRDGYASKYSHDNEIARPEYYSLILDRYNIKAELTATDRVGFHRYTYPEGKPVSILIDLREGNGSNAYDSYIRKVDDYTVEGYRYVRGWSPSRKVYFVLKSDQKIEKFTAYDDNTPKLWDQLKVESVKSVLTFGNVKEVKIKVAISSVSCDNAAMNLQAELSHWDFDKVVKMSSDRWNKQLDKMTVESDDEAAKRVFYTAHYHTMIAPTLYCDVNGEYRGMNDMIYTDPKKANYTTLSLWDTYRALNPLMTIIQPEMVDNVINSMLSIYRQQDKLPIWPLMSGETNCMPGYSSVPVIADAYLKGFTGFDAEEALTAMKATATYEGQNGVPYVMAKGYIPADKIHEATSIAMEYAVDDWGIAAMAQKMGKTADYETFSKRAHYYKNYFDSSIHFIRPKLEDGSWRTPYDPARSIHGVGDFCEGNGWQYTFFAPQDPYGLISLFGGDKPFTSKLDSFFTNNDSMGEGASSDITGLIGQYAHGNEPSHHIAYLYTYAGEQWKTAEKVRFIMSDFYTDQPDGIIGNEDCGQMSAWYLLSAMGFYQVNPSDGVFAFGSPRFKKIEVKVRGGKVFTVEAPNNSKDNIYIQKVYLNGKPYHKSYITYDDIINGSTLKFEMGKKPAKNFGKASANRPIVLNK

[3] = biological target: T3, Alpha-1,2-mannosidase (BT_3994) (Bacteroides thetaiotaomicron) (UniProt Q8A0M7); assay: Activity of Bacteroides thetaiotaomicron GH92 alpha-mannosidase GH92 alpha-mannosidase 3994 assessed as mannose release at 1 mM after 16 hrs by HPLC relative to untreated control after 16 hrs by HPLC
T3 sequence (whole entry): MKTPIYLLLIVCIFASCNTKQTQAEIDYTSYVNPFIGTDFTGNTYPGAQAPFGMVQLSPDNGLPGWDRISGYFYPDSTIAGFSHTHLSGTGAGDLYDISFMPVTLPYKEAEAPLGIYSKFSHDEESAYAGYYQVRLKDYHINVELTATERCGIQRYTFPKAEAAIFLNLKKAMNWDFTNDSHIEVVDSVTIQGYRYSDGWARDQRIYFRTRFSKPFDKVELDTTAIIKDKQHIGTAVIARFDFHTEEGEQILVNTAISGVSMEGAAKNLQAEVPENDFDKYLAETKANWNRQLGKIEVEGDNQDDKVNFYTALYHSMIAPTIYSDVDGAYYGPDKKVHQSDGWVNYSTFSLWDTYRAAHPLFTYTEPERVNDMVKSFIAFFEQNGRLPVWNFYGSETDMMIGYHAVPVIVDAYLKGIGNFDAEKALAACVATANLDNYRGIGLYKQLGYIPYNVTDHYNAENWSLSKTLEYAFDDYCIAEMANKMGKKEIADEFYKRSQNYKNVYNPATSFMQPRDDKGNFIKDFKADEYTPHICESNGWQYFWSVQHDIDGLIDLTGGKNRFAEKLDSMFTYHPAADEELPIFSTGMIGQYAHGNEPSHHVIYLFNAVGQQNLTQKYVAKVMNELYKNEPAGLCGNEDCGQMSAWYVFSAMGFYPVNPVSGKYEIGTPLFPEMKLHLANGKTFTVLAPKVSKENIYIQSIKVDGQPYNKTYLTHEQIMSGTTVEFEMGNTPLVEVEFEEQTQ

Row | Activity [1] [%] | Activity [2] [%] | Activity [3] | Structure (SMILES)
1 | 0.045 | 0.91 | inactive | OC[C@H]1O[C@H](O[C@H]2[C@@H](O)[C@H](O)[C@@H](CO)O[C@@H]2O)[C@@H](O)[C@@H](O)[C@@H]1O
2 | 0.0025 | 0.0088 | inactive | OC[C@H]1O[C@H](OC[C@H]2O[C@H](O)[C@@H](O)[C@@H](O)[C@@H]2O)[C@@H](O)[C@@H](O)[C@@H]1O
3 | 0.1 | 4.7 | 20% | OC[C@H]1O[C@H](O[C@H]2[C@H](O)[C@H](O)[C@@H](O)O[C@@H]2CO)[C@@H](O)[C@@H](O)[C@@H]1O
